From paper PMC9248008, “Mechanistic Studies of a Skatole-Forming Glycyl Radical Enzyme Suggest Reaction Initiation via Hydrogen Atom Transfer” (Journal of the American Chemical Society, 2022)

Legend:
[1] = molecular target: T1, Ou IAD (indoleacetate decarboxylase from Olsenella uli) (Olsenella uli, UniProt E1QXZ2); test: inhibition in assays with I3A; format: biochemical; conditions: partial competitive inhibitor versus I3A, not consumed
T1 construct: gene Olsu_0124; purified; glycyl radical installed by Ou IAD-AE with SAM; catalytic Gly853 and Cys500; tags and host only in supplement
T1 sequence (E1QXZ2 entry or part of it): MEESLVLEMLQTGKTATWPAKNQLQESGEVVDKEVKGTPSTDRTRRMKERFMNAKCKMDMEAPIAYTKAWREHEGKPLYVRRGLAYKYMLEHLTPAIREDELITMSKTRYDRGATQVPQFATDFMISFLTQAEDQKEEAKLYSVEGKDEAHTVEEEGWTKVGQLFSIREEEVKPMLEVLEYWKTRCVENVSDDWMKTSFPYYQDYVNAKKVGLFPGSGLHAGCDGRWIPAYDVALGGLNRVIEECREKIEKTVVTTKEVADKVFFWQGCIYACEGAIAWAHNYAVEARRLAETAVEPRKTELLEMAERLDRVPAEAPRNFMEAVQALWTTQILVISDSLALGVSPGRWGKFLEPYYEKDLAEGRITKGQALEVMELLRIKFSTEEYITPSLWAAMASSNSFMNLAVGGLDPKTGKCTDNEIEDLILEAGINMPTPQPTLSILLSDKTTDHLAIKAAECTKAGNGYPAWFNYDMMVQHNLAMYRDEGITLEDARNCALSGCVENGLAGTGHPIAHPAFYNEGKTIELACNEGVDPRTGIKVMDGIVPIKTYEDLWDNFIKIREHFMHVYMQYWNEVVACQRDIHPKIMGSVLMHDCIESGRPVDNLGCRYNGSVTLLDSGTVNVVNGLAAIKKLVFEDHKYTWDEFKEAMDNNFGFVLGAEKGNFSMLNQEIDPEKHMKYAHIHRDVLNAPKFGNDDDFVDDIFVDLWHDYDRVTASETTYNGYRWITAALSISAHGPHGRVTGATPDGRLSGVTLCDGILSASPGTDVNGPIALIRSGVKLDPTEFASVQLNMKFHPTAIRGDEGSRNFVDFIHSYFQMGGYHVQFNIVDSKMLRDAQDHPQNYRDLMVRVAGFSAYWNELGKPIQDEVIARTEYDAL

[2] = molecular target: T2, Cs HPAD (hydroxyphenylacetate decarboxylase) (Clostridium scatologenes, UniProt Q38HX4); test: p-cresol formation, deuterium incorporation in D2O; format: biochemical; conditions: mere turnover
T2 construct: gene csdB; glycyl radical enzyme; residues Cys503, Glu505, Glu637; with 4-hydroxyphenylacetate decarboxylase small subunit
T2 sequence (Q38HX3 whole entry): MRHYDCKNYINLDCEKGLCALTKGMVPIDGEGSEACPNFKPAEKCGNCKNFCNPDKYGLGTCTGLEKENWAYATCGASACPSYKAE
T2 sequence (Q38HX4 whole entry): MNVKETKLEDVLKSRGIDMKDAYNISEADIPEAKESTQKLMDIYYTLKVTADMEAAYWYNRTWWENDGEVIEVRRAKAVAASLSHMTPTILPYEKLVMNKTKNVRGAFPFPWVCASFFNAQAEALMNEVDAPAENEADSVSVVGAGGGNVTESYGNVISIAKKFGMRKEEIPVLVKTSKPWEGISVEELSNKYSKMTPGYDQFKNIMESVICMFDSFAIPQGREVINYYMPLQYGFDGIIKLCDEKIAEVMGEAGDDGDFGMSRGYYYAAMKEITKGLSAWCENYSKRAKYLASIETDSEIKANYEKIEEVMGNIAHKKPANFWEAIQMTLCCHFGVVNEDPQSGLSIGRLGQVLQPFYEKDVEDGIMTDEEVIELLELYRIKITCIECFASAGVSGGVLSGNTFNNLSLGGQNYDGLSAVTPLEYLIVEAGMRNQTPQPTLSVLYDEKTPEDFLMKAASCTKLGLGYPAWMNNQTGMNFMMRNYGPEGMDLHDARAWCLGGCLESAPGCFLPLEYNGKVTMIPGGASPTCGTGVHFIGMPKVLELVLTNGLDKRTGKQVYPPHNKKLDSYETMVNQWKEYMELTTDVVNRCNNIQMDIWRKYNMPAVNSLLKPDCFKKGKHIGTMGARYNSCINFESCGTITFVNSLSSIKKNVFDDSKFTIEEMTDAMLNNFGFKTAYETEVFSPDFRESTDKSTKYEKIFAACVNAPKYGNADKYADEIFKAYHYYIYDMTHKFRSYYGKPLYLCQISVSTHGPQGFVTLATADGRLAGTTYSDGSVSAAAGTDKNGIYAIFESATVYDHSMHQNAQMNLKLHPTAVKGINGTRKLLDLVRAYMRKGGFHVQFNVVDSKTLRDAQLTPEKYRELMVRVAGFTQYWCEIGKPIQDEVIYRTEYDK

## CC(C)(C(=O)O)c1c[nH]c2ccccc12 [α,α-Me2-I3A]
[1]
  inhibition in assays with I3A: Both compounds are partial competitive inhibitors in assays with I3A

## CC(C(=O)O)c1c[nH]c2ccccc12 (racemic) [α-Me-I3A]
[1]; racemic
  inhibition in assays with I3A: Both compounds are partial competitive inhibitors in assays with I3A

## O=C(O)Cc1ccc(O)cc1 [HPA, p-hydroxyphenylacetate]
[2]
  p-cresol formation, deuterium incorporation in D2O: When HPA and Cs HPAD were incubated with D2O, only the expected D1-p-cresol
